The target of assay [1] is T1, Thymidine phosphorylase (Rattus norvegicus) (UniProt Q5FVR2).
T1 sequence (whole entry): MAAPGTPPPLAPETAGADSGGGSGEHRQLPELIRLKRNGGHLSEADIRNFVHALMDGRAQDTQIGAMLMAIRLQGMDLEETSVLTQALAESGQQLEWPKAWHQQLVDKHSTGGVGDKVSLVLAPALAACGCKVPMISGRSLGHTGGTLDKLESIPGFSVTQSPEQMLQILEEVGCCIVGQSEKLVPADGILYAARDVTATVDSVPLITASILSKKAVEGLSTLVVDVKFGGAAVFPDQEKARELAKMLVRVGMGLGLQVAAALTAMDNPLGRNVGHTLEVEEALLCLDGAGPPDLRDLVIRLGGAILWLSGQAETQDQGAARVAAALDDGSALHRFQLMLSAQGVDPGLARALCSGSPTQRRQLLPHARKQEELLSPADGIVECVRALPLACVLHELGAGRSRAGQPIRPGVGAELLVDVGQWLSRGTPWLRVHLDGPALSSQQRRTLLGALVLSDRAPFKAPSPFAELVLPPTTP
Put plainly: Inhibition of thymidine phosphorylase in T cell lymphomas of Sprague-Dawley rat assessed as residual activity at 10 uM in presence of 100 uM thymidine and 200 uM phosphate.

The target in assay [2] is T2, Thymidine phosphorylase (Rattus norvegicus, UniProt Q5FVR2).
T2 sequence (Q5FVR2 whole entry): T1 sequence (whole entry)
Put plainly: Inhibition of thymidine phosphorylase in T cell lymphomas of Sprague-Dawley rat in presence of 100 uM thymidine and 200 uM phosphate. Format: cell-based.

The structures appear in SMILES notation.

For `Cc1cn([C@H]2C[C@H]3O[C@](c4ccccc4)(P(=O)(O)O)OC[C@H]3O2)c(=O)[nH]c1=O`, the Activity in assay [1] was 4%.

Consider `Cc1cn(C2CCN(C(=S)P(=O)(O)O)C2)c(=O)[nH]c1=O` (racemic), for which, in assay [2], the IC50 (as a rule, the concentration needed to halve the response being measured) came to 190 nM. Also, the Activity in assay [1] stood at 9%.

As to `Cc1cn([C@@H]2CN(C(=O)P(=O)(O)O)C[C@@H]2O)c(=O)[nH]c1=O`, the IC50 in assay [2] worked out at 11 nM. Also, the Activity in assay [1] stood at 0%.

For the compound `Cc1cn(CCOC2(P(=O)(O)O)CCCCC2)c(=O)[nH]c1=O`, in assay [1], the Activity is 21%.

In the case of `Cc1cn(C2CCN(C(=O)P(=O)(O)O)C2)c(=O)[nH]c1=O` (racemic), the IC50 in assay [2] came out at 350 nM. Further, the Activity in assay [1] came to 3%.

Take `Cc1cn(CC(OCP(=O)(O)O)Oc2ccccc2)c(=O)[nH]c1=O` (stereo not given): the IC50 in assay [2] was 750 nM. For the same compound, the Activity in assay [1] worked out at 1%.

Consider `Cc1cn([C@H]2C[C@H](CO)N(C(=O)P(=O)(O)O)C2)c(=O)[nH]c1=O`, for which the IC50 in assay [2] amounted to 45 nM. Also, the Activity in assay [1] was determined as 2%.

As to `Cc1cn([C@@H]2CN(C(=S)P(=O)(O)O)C[C@@H]2O)c(=O)[nH]c1=O`, the concentration for half-maximal inhibition (IC50) in assay [2] amounted to 15 nM. Moreover, in assay [1], the Activity stood at 0%.

As for `Cc1cn([C@H]2C[C@H]3O[C@@](CBr)(P(=O)(O)O)OC[C@H]3O2)c(=O)[nH]c1=O`, in assay [1], the Activity was determined as 26%.

Regarding `Cc1cn(C2CCN(CP(=O)(O)O)C2)c(=O)[nH]c1=O` (racemic), the Activity in assay [1] is 29%.

Take `O=c1ccn([C@H]2C[C@@H](CO)N(CP(=O)(O)O)C2)c(=O)[nH]1`: in assay [1], the Activity came to 17%.

With `C=CCOC(Cn1cc(C)c(=O)[nH]c1=O)OCP(=O)(O)O` (stereo not given), the IC50 in assay [2] came out at 300 nM. For the same compound, the Activity in assay [1] came out at 10%.

Consider `Cc1cn([C@H]2C[C@H]3O[C@@](c4ccccc4)(P(=O)(O)O)OC[C@H]3O2)c(=O)[nH]c1=O`, for which the Activity in assay [1] was found to be 47%.

As to `Cc1cn(CCOC(c2ccccc2)P(=O)(O)O)c(=O)[nH]c1=O` (stereo not given), the Activity in assay [1] came to 9%.

For `Cc1cn([C@@H]2CN(CP(=O)(O)O)C[C@@H]2O)c(=O)[nH]c1=O`, in assay [2], the IC50 turned out to be 45 nM. For the same compound, the Activity in assay [1] was 1%.

In the case of `Cc1cn([C@@H]2CN(C(=O)P(=O)(O)O)C[C@H]2O)c(=O)[nH]c1=O`, in assay [2], the IC50 was 220 nM. In assay [1], the Activity turned out to be 4%.

Take `Cc1cn(C2CCN(C(=O)CP(=O)(O)O)C2)c(=O)[nH]c1=O` (racemic): the Activity in assay [1] was 59%.

Regarding `Cc1cn([C@H]2C[C@H](CO)N(CP(=O)(O)O)C2)c(=O)[nH]c1=O`, the IC50 in assay [2] is 250 nM. For the same compound, the Activity in assay [1] turned out to be 0%.

As to `Cc1cn([C@H]2C[C@H]3O[C@](CBr)(P(=O)(O)O)OC[C@H]3O2)c(=O)[nH]c1=O`, the Activity in assay [1] stood at 20%.

As to `Cc1cn(CCOC2(P(=O)(O)O)CCCC2)c(=O)[nH]c1=O`, the Activity in assay [1] stood at 14%.

For the origin of these results see ChEMBL document CHEMBL1159101, “Structural diversity of nucleoside phosphonic acids as a key factor in the discovery of potent inhibitors of rat T-cell lymphoma thymidine phosphorylase” (Bioorg Med Chem Lett, 2010).
